# Read-outs that look alike come from different tables or passages of the source.
# Key:
# [1] = test system: hPSC-NSCs; test: RT-PCR expression of dopamine neuron genes in hPSC-NSCs treated with small molecule hits; type: cell-based, human; settings: Homo sapiens, Neuron, 336 h, hPSC-NSCs primed 7 days with Purmorphamine and FGF8, small molecule 2.5 μM for two weeks
# Experimental: (§1) The method specifically involved treating both hESC-H9-NSCs (Invitrogen) and hPSC-NSCs with Purmorphamine (2 μM) and FGF8 (100 ng/mL) in NB medium [NeuroBasal medium, 1× GlutaMAX, 1× N2/B27 Supplement (Invitrogen)] for 7 days. After 7 days of Purmorphamine and FGF8 treatment, the NSCs were dissociated with Accutase (Sigma) and plated 20,000 cells/mL into Matrigel coated 96 well plates and treated with small molecule library (Torcris 1120 Biologically Active Compounds) at 2.5 μM final concentration for two weeks (FIG. 6A). Two weeks after treatment with small molecules, all wells were visually observed and scored based on neurite density and dopamine release. For measuring neurite density, cells were fixed with 4% paraformaldehyde and phase contrast images were acquired using Cellavista Cell Imaging System (Roche Applied Science) from randomly selected fields. Neurite density was measured using the Cellavista density software image processing program. Each experimental condition was done in duplicate wells, and at least three independent experiments were conducted to acquire the final results.
# (§2) Conditioned medium from the top neurite inducers (Table 1) (wells containing the highest density of neurites compare to control 0.1% DMSO treated) were collected and analyzed using a dopamine ELISA assay (Cosmo Bio). Conditioned medium was collected from samples containing 50,000 cells per well and centrifuged at 3000 RPM to remove cell debris. Supernatant was then collected and analyzed for quantitative determination of dopamine using a commercial dopamine ELISA assay kit (CusaCosmo Bio). Data analysis was performed using the microtiter plate reader (BIO-TEK Synergy 2). The results presented are from three independent experiments (n=3) and represented as mean±standard error of mean (s.e.m.) and statistical analysis was performed using the two-tailed Student's t-test with a confidence level of 95% (α=0.05) with statistical significance of P<0.05. Additionally, total RNA from each well were collected and analyze by RT-PCR for expression of TuJ1, MAP2, TH, GRK2, EN1, DAT, AADC, PAX2, NURR1, PITX3 and LMX1B from hPSC-NSCs (Table 2). […] Analysis of the ELISA data indicated the top small molecule neurite inducers produced higher levels of dopamine than control non-treated cells (1.5 ng/mL). […] The percentages of TH positive cells produced by chemical treatment with Kenpaullone (33%), Guggulsterone (35%), Kynurenic Acid (19%), Immedthridine Dihydrobromide (21%), and Dimaprit Dihydrochloride (18%) were higher than 15% of TH positive cells obtained from hPSC-NSCs differentiated for ≥1 month using a standard dopaminergic differentiation medium (BDNF 20 ng/mL, GDNF 20 ng/mL, cAMP 200 μM, Abscorbic Acid 200 μM, TGFβ3 2 ng/mL and DAPT).
# Total RNA from at least triplicate samples with around 1 million cells each was isolated using either QIAsymphony automatic purification system or RNeasy Plus Mini kit, according to manufacturer's instructions (Qiagen). Total RNA was used for reverse transcription with the iScript cDNA synthesis kit (Biorad) and Px2 Thermal Cycler (Thermo Scientific). To analyze gene expression, PCR reactions were performed in duplicate using 1/25-th of the cDNA per reaction and the QuantiTect Primer Assay and Quantitest SYBR Green master mix (Qiagen). qPCR was performed using the Rotor-Gene Q (Qiagen) 5 min at 95° C., 5 s at 92° C., and 20 s at 60° C. for 37 cycles followed by melt to check the specificity of the amplicons from 50 to 99° C. raising by 1° C. each step. Relative quantification was performed against a standard curve and quantified values were normalized against the input determined by PPIG. The primers used for the analysis are listed in Supplementary Table S1. […]
# [2] = test system: hPSC-NSCs; test: Percentage of TH positive cells produced by chemical treatment; type: cell-based, human; settings: chemical treatment 2.5 μM for two weeks
# Experimental: as §1, §2
compound,measurement,setting,value
O=C(O)c1cc(=O)c2ccccc2[nH]1 [Kynurenic acid],fold induction at 2.5 µM,[1]; read-out: DDC (AADC) expression by RT-PCR,37.5
same,fold induction at 2.5 µM,[1]; read-out: EN1 expression by RT-PCR,9.25
same,fold induction at 2.5 µM,[1]; read-out: KCNJ6 expression by RT-PCR,0.07
same,fold induction at 2.5 µM,[1]; read-out: LMX1B expression by RT-PCR,6.36
same,fold induction at 2.5 µM,[1]; read-out: MAP2 expression by RT-PCR,9.12
same,fold induction at 2.5 µM,[1]; read-out: NR4A2 (NURR1) expression by RT-PCR,0.27
same,fold induction at 2.5 µM,[1]; read-out: Pax2 expression by RT-PCR,1.16
same,fold induction at 2.5 µM,[1]; read-out: SLC6A3 (DAT) expression by RT-PCR,3.41
same,fold induction at 2.5 µM,[1]; read-out: TH1 expression by RT-PCR,16.8
same,fold induction at 2.5 µM,[1]; read-out: Tubb3 expression by RT-PCR,6.43
same,percentage of TH positive cells,[2],19%
